Experimental data reported in ChEMBL document CHEMBL4028803, “Design, synthesis, and structure-activity relationship studies of benzothiazole derivatives as antifungal agents” (Eur J Med Chem, 2016).
≈ marks a conversion by molar mass, not a printed value.

Assays:
Aspergillus fumigatus = assay: Antifungal activity against Aspergillus fumigatus cgmcc 3.7795 by broth microdilution assay; assay type: functional
Candida tropicalis = assay: Antifungal activity against Candida tropicalis cgmcc 2.3739 by broth microdilution assay; assay type: functional
Candida albicans [1] = assay: Antifungal activity against Candida albicans ATCC SC5314 by broth microdilution assay; assay type: functional
Cryptococcus neoformans [2] = assay: Antifungal activity against Cryptococcus neoformans cgmcc 2.3161 by broth microdilution assay; assay type: functional
Candida albicans [3] = assay: Antifungal activity against Candida albicans CPCC 400523 by broth microdilution assay; assay type: functional
[4] = molecular target: T1, Lanosterol 14-alpha demethylase (Candida albicans (strain SC5314 / ATCC MYA-2876) (Yeast), UniProt P10613); assay: Inhibition of CYP51 in Candida albicans ATCC SC5314 assessed as obtusifoliol composition of the total sterol fraction in membrane at 8 ug/ml after 16 hrs by GC-MS analysis relative to control; design: scale not given: the % may be the effect or the level left; conditions: candida albicans sc5314, 16 h
T1 sequence (P10613 whole entry): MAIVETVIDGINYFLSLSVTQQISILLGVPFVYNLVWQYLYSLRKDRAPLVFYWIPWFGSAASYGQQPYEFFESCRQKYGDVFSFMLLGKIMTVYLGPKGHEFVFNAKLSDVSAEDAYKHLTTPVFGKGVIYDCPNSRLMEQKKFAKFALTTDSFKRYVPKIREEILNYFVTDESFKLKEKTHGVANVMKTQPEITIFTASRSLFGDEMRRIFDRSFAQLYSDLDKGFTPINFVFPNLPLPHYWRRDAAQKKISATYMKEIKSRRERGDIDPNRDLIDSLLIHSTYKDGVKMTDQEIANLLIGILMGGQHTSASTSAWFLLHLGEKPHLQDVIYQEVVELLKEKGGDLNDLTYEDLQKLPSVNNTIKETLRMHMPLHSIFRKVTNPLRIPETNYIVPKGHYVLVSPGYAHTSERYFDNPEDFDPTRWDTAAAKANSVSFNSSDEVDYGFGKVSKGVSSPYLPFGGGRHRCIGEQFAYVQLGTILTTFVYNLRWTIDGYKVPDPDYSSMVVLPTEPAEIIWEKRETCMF

[5] = molecular target: T1, Lanosterol 14-alpha demethylase; assay: Inhibition of CYP51 in Candida albicans ATCC SC5314 assessed as eburicol composition of the total sterol fraction in membrane at 8 ug/ml after 16 hrs by GC-MS analysis relative to control; design: scale not given: the % may be the effect or the level left; conditions: candida albicans sc5314, 16 h
[6] = molecular target: T1, Lanosterol 14-alpha demethylase; assay: Inhibition of CYP51 in Candida albicans ATCC SC5314 assessed as lanosterol composition of the total sterol fraction in membrane at 8 ug/ml after 16 hrs by GC-MS analysis (reference value: 2.9%); design: scale not given: the % may be the effect or the level left; conditions: candida albicans sc5314, 16 h
[7] = molecular target: T1, Lanosterol 14-alpha demethylase; assay: Inhibition of CYP51 in Candida albicans ATCC SC5314 assessed as sterol composition in membrane at 8 ug/ml after 16 hrs by GC-MS analysis (reference value: 7.5%); design: scale not given: the % may be the effect or the level left; conditions: candida albicans sc5314, 16 h
[8] = molecular target: T1, Lanosterol 14-alpha demethylase; assay: Inhibition of CYP51 in Candida albicans ATCC SC5314 assessed as ergosterol composition of the total sterol fraction in membrane at 8 ug/ml after 16 hrs by GC-MS analysis (reference value: 89.6%); design: scale not given: the % may be the effect or the level left; conditions: candida albicans sc5314, 16 h
Candida albicans [9] = assay: Antifungal activity against fluconazole-resistant Candida albicans 103 by broth microdilution assay; assay type: functional
Candida albicans [10] = assay: Antifungal activity against fluconazole-resistant Candida albicans 100 by broth microdilution assay; assay type: functional
Cryptococcus neoformans [11] = assay: Antifungal activity against Cryptococcus neoformans by NCCLS method; assay type: functional
Candida albicans [12] = assay: Antifungal activity against Candida albicans by NCCLS method; assay type: functional

| SMILES | MIC (Aspergillus fumigatus) | MIC (Candida tropicalis) | MIC (Candida albicans [1]) | MIC (Cryptococcus neoformans [2]) | MIC (Candida albicans [3]) | Activity [4] | Activity [5] | Activity [6] | Activity [7] | Activity [8] | MIC (Candida albicans [9]) | MIC (Candida albicans [10]) | MIC (Cryptococcus neoformans [11]) | MIC (Candida albicans [12]) |
| --- | --- | --- | --- | --- | --- | --- | --- | --- | --- | --- | --- | --- | --- | --- |
| CCNC(=O)[C@H](Cn1ccnc1)NC(=O)c1nc2ccc(Br)cc2s1 | > 64 µg/mL | > 64 µg/mL | > 64 µg/mL | > 64 µg/mL | > 64 µg/mL |  |  |  |  |  |  |  |  |  |
| Cc1ccc2nc(C(=O)N[C@@H](Cn3ccnc3)C(=O)OC(C)C)sc2c1 | > 64 µg/mL | 1 µg/mL (≈ 2.68 µM) | 0.5 µg/mL (≈ 1.34 µM) | 2 µg/mL (≈ 5.37 µM) | 4 µg/mL (≈ 10.7 µM) |  |  |  |  |  |  |  |  |  |
| Cc1ccc2nc(C(=O)N[C@@H](Cn3ccnc3)C(=O)OCC(C)C)sc2c1 | > 64 µg/mL | 0.5 µg/mL (≈ 1.29 µM) | 0.25 µg/mL (≈ 0.647 µM) | 0.5 µg/mL (≈ 1.29 µM) | 2 µg/mL (≈ 5.17 µM) |  |  |  |  |  |  |  |  |  |
| CC(C)COC(=O)[C@@H](Cn1ccnc1)NC(=O)c1nc2ccc(Br)cc2s1 | > 64 µg/mL | 0.125 µg/mL (≈ 0.277 µM) | 0.125 µg/mL (≈ 0.277 µM) | 0.5 µg/mL (≈ 1.11 µM) | 0.25 µg/mL (≈ 0.554 µM) |  |  |  |  |  |  |  |  |  |
| CCOC(=O)[C@H](Cn1ccnc1)NC(=O)c1nc2ccc(C)cc2s1 | > 64 µg/mL | 4 µg/mL (≈ 11.2 µM) | 2 µg/mL (≈ 5.58 µM) | 8 µg/mL (≈ 22.3 µM) | > 64 µg/mL |  |  |  |  |  |  |  |  |  |
| CC(C)COC(=O)[C@H](Cn1ccnc1)NC(=O)c1nc2ccc(F)cc2s1 | > 64 µg/mL | 8 µg/mL (≈ 20.5 µM) | 0.5 µg/mL (≈ 1.28 µM) | 4 µg/mL (≈ 10.2 µM) | 16 µg/mL (≈ 41 µM) |  |  |  |  |  |  |  |  |  |
| CCCOC(=O)[C@H](Cn1ccnc1)NC(=O)c1nc2ccc(C)cc2s1 | > 64 µg/mL | 0.5 µg/mL (≈ 1.34 µM) | 0.5 µg/mL (≈ 1.34 µM) | 2 µg/mL (≈ 5.37 µM) | 4 µg/mL (≈ 10.7 µM) |  |  |  |  |  |  |  |  |  |
| CC(C)COC(=O)[C@H](Cn1ccnc1)NC(=O)c1nc2c(C(F)(F)F)cccc2s1 | > 64 µg/mL | > 64 µg/mL | > 64 µg/mL | > 64 µg/mL | > 64 µg/mL |  |  |  |  |  |  |  |  |  |
| CC(C)COC(=O)[C@H](Cn1ccnc1)NC(=O)c1nc2ccc(Cl)cc2s1 | > 64 µg/mL | 0.25 µg/mL (≈ 0.614 µM) | 0.125 µg/mL (≈ 0.307 µM) | 1 µg/mL (≈ 2.46 µM) | 2 µg/mL (≈ 4.92 µM) |  |  |  |  |  |  |  |  |  |
| Cc1cccc2sc(C(=O)N[C@@H](Cn3ccnc3)C(=O)OCC(C)C)nc12 | > 64 µg/mL | > 64 µg/mL | > 64 µg/mL | > 64 µg/mL | > 64 µg/mL |  |  |  |  |  |  |  |  |  |
| CCCOC(=O)[C@H](Cn1ccnc1)NC(=O)c1nc2ccc(Cl)cc2s1 | > 64 µg/mL | 1 µg/mL (≈ 2.55 µM) | 0.5 µg/mL (≈ 1.27 µM) | 2 µg/mL (≈ 5.09 µM) | 2 µg/mL (≈ 5.09 µM) |  |  |  |  |  |  |  |  |  |
| CC(C)OC(=O)[C@H](Cn1ccnc1)NC(=O)c1nc2ccc(F)cc2s1 | > 64 µg/mL | 16 µg/mL (≈ 42.5 µM) | 4 µg/mL (≈ 10.6 µM) | > 64 µg/mL | 16 µg/mL (≈ 42.5 µM) |  |  |  |  |  |  |  |  |  |
| CC(C)COC(=O)[C@H](Cn1ccnc1)NC(=O)c1nc2ccc(Br)cc2s1 | > 64 µg/mL | 0.25 µg/mL (≈ 0.554 µM) | 0.125 µg/mL (≈ 0.277 µM) | 0.5 µg/mL (≈ 1.11 µM) | 0.25 µg/mL (≈ 0.554 µM) | 6.4% | 63.4% | 18.8% | 8.6% | 2.7% | 8 µg/mL (≈ 17.7 µM) | 16 µg/mL (≈ 35.4 µM) |  |  |
| COC(=O)[C@H](Cn1ccnc1)NC(=O)c1nc2ccc(C)cc2s1 | > 64 µg/mL | 16 µg/mL (≈ 46.5 µM) | 8 µg/mL (≈ 23.2 µM) | 8 µg/mL (≈ 23.2 µM) | > 64 µg/mL |  |  |  |  |  |  |  |  |  |
| COC(=O)[C@H](Cn1ccnc1)NC(=O)c1nc2ccccc2s1 |  |  |  |  |  |  |  |  |  |  |  |  | 2 µg/mL (≈ 6.05 µM) | 8 µg/mL (≈ 24.2 µM) |
| COC(=O)[C@H](Cn1ccnc1)NC(=O)c1nc2ccc(Cl)cc2s1 | > 64 µg/mL | 8 µg/mL (≈ 21.9 µM) | 8 µg/mL (≈ 21.9 µM) | 32 µg/mL (≈ 87.7 µM) | 16 µg/mL (≈ 43.9 µM) |  |  |  |  |  |  |  |  |  |
| COc1ccc2nc(C(=O)N[C@@H](Cn3ccnc3)C(=O)OC(C)C)sc2c1 | > 64 µg/mL | 2 µg/mL (≈ 5.15 µM) | 2 µg/mL (≈ 5.15 µM) | 32 µg/mL (≈ 82.4 µM) | 4 µg/mL (≈ 10.3 µM) |  |  |  |  |  |  |  |  |  |
| CNC(=O)[C@H](Cn1ccnc1)NC(=O)c1nc2ccc(Br)cc2s1 | > 64 µg/mL | > 64 µg/mL | > 64 µg/mL | > 64 µg/mL | > 64 µg/mL |  |  |  |  |  |  |  |  |  |
| CC(C)OC(=O)[C@H](Cn1ccnc1)NC(=O)c1nc2ccc(Br)cc2s1 | > 64 µg/mL | 0.5 µg/mL (≈ 1.14 µM) | 0.125 µg/mL (≈ 0.286 µM) | 2 µg/mL (≈ 4.57 µM) | 0.5 µg/mL (≈ 1.14 µM) |  |  |  |  |  | 16 µg/mL (≈ 36.6 µM) | 32 µg/mL (≈ 73.2 µM) |  |  |
| CC(C)OC(=O)[C@@H](Cn1ccnc1)NC(=O)c1nc2ccc(Br)cc2s1 | > 64 µg/mL | 1 µg/mL (≈ 2.29 µM) | 0.125 µg/mL (≈ 0.286 µM) | 2 µg/mL (≈ 4.57 µM) | 0.5 µg/mL (≈ 1.14 µM) |  |  |  |  |  |  |  |  |  |
| CC(C)OC(=O)[C@H](Cn1ccnc1)NC(=O)c1nc2ccc(Cl)cc2s1 | > 64 µg/mL | 1 µg/mL (≈ 2.55 µM) | 0.25 µg/mL (≈ 0.636 µM) | 2 µg/mL (≈ 5.09 µM) | 2 µg/mL (≈ 5.09 µM) |  |  |  |  |  |  |  |  |  |
| CC(C)COC(=O)[C@H](Cn1ccnc1)NC(=O)c1nc2c(Cl)cccc2s1 | > 64 µg/mL | > 64 µg/mL | > 64 µg/mL | > 64 µg/mL | > 64 µg/mL |  |  |  |  |  |  |  |  |  |
| CCOC(=O)[C@H](Cn1ccnc1)NC(=O)c1nc2ccc(Cl)cc2s1 | > 64 µg/mL | 2 µg/mL (≈ 5.28 µM) | 0.5 µg/mL (≈ 1.32 µM) | 8 µg/mL (≈ 21.1 µM) | 4 µg/mL (≈ 10.6 µM) |  |  |  |  |  |  |  |  |  |
| CC(C)COC(=O)[C@H](Cn1ccnc1)NC(=O)c1nc2ccc(C(F)(F)F)cc2s1 | > 64 µg/mL | 0.5 µg/mL (≈ 1.14 µM) | 0.125 µg/mL (≈ 0.284 µM) | 0.5 µg/mL (≈ 1.14 µM) | 2 µg/mL (≈ 4.54 µM) |  |  |  |  |  | 32 µg/mL (≈ 72.7 µM) | 32 µg/mL (≈ 72.7 µM) |  |  |
| COc1ccc2nc(C(=O)N[C@@H](Cn3ccnc3)C(=O)OCC(C)C)sc2c1 | > 64 µg/mL | 1 µg/mL (≈ 2.48 µM) | 2 µg/mL (≈ 4.97 µM) | 8 µg/mL (≈ 19.9 µM) | 4 µg/mL (≈ 9.94 µM) |  |  |  |  |  |  |  |  |  |
| CC(C)OC(=O)[C@H](Cn1ccnc1)NC(=O)c1nc2ccc(C(F)(F)F)cc2s1 | > 64 µg/mL | 1 µg/mL (≈ 2.35 µM) | 0.125 µg/mL (≈ 0.293 µM) | 2 µg/mL (≈ 4.69 µM) | 2 µg/mL (≈ 4.69 µM) |  |  |  |  |  |  |  |  |  |
| OC(Cn1cncn1)(Cn1cncn1)c1ccc(F)cc1F [FLUCONAZOLE] | > 64 µg/mL | 1 µg/mL (≈ 3.27 µM) | 0.5 µg/mL (≈ 1.63 µM) | 4 µg/mL (≈ 13.1 µM) | 1 µg/mL (≈ 3.27 µM) | 6.9% | 67.9% | 18.3% | 4.8% | 2.1% | > 64 µg/mL | > 64 µg/mL |  |  |
| CCC(C)n1ncn(-c2ccc(N3CCN(c4ccc(OCC5COC(Cn6cncn6)(c6ccc(Cl)cc6Cl)O5)cc4)CC3)cc2)c1=O (stereo not given) [ITRACONAZOLE] | 4 µg/mL (≈ 5.67 µM) | 0.5 µg/mL (≈ 0.709 µM) | 0.125 µg/mL (≈ 0.177 µM) | 1 µg/mL (≈ 1.42 µM) | 0.5 µg/mL (≈ 0.709 µM) |  |  |  |  |  |  |  |  |  |
